Test results taken from US11136304B2, “Salts of a heterocyclic compound and crystalline forms, processes for preparing, therapeutic uses, and pharmaceutical compositions thereof” (Sunovion Pharmaceuticals Inc., priority 2019, dated 2021).
Counter-ions that a name gives are not always drawn.

Test: Stability study (storage at 60° C. and 60° C. 75% RH, measured by HPLC)
Assay type: physicochemical
Parameters: Stability Study Results (HPLC): unit not given here
Details: for stability: stored at 60° C. and 60° C. 75% RH for 1 month, measured at 20 days and 1 month by HPLC
Description: Each sample was stored at 60° C. and 60° C. 75% RH for 1 month. Each sample was measured at 20 days and 1 month by HPLC. HPLC conditions are described below.
Column: Waters XSelect CSH C18, 4.6×150 mm, 3.5 μm
MPA: 50 mM HClO4 in water (pH=3)
MPB: MeOH/acetonitrile (9:1)

Stability Study Results (HPLC) (1 month at 60° C.) | Stability Study Results (HPLC) (1 month at 60° C. 75% RH) | Stability Study Results (HPLC) (20 day at 60° C.) | Stability Study Results (HPLC) (20 days at 60° C. 75% RH) | Stability Study Results (HPLC) (Initial) | stability | stability (phosphate) | Molecule
99.16 | 97.73 | 99.10 | 98.34 | 99.08 | – | – | O=C(O)CC(O)(CC(=O)O)C(=O)O [Citric acid]
99.23 | 99.24 | 99.20 | 99.20 | 99.20 | – | – | O=P(O)(O)O [Compound H3PO4]
– | – | – | – | – | stable | – | CNC[C@@H]1OCCc2cccc(F)c21.O=C(O)/C=C/C(=O)O [Fumarate, (R)-1-(8-fluoroisochroman-1-yl)-N-methylmethanamine fumarate]
99.60 | 99.64 | 99.54 | 99.67 | 99.48 | – | – | O=C(O)/C=C/C(=O)O [Fumaric acid]
98.89 | 99.05 | 98.50 | 99.07 | 98.94 | – | – | Cl [HCl]
– | – | – | – | – | stable | – | CNC[C@@H]1OCCc2cccc(F)c21.Cl [Hydrochloride, (R)-1-(8-fluoroisochroman-1-yl)-N-methylmethanamine hydrochloride]
– | – | – | – | – | stable | – | CNC[C@@H]1OCCc2cccc(F)c21.O=C(O)C(O)C(O)C(=O)O [L-tartrate, (R)-1-(8-fluoroisochroman-1-yl)-N-methylmethanamine L-tartrate]
– | – | – | – | – | – | stable | CNC[C@@H]1OCCc2cccc(F)c21 [Phosphate, (R)-1-(8-fluoroisochroman-1-yl)-N-methylmethanamine phosphate]
– | – | – | – | – | stable | – | CNC[C@@H]1OCCc2cccc(F)c21.O=C(O)CC(O)(CC(=O)O)C(=O)O [citrate, (R)-1-(8-fluoroisochroman-1-yl)-N-methylmethanamine citrate]
– | – | – | – | – | unstable | – | CNC[C@@H]1OCCc2cccc(F)c21 [freebase (amorphous) of Compound 1, (R)-1-(8-fluoroisochroman-1-yl)-N-methylmethanamine]
99.14 | 99.23 | 99.13 | 99.23 | 99.10 | – | – | L-Tartaric
